The target in assay [1] is T1, GCN2 kinase (Homo sapiens, UniProt Q9P2K8).
T1 construct: G556E with a; purchased Carna Biosciences
Nature of the assay: Biochemical assay for GCN2 (TR-FRET kinase activity assay). As to conditions: 2 nM GCN2, 1 mM ATP, 3-hour incubation. The protocol:
Biochemical assay for GCN2
Activity of GCN2 kinase was determined using a TR-FRET kinase activity assay (e.g., Analytical Biochemistry, 2006, 356, 108-116). Assays were conducted in 384-well plates (13 μL assay volume) using 2 nM GCN2 (Carna Biosciences), 130 nM GFP-EIf2α (Invitrogen), 0.2 mg/mL E. coli tRNA (sigma) and 1 mM ATP in kinase buffer (Invitrogen). Inhibition of GCN2 was measured by adding serial diluted test compound (final assay concentration of 0.5% DMSO) followed by a 3-hour incubation. Tb-peIF2α (pSer52) antibody (Invitrogen) (2 nM final assay concentration) in kinase buffer containing EDTA (final assay concentration of 20 mM) was added. After a 60 min incubation at room temperature, TR-FRET was monitored using an excitation wavelength of 340 nm and emission wavelengths of 490 nm and 520 nm. The emission ratio (520/490) at each compound concentration of was converted to percent inhibition using controls (i.e., reaction with no test compound and reaction with a known inhibitor) and IC50 values were calculated by fitting a four-parameter sigmoidal curve to the data using Prism (GraphPad software).

In assay [2] the target is T2, PERK kinase (Homo sapiens, UniProt Q9NZJ5, A704S).
T2 construct: GST (with thrombin site LVPRGS); purchased Beryllium
T2 sequence (Q9NZJ5 with tags, fused parts or gaps A704S): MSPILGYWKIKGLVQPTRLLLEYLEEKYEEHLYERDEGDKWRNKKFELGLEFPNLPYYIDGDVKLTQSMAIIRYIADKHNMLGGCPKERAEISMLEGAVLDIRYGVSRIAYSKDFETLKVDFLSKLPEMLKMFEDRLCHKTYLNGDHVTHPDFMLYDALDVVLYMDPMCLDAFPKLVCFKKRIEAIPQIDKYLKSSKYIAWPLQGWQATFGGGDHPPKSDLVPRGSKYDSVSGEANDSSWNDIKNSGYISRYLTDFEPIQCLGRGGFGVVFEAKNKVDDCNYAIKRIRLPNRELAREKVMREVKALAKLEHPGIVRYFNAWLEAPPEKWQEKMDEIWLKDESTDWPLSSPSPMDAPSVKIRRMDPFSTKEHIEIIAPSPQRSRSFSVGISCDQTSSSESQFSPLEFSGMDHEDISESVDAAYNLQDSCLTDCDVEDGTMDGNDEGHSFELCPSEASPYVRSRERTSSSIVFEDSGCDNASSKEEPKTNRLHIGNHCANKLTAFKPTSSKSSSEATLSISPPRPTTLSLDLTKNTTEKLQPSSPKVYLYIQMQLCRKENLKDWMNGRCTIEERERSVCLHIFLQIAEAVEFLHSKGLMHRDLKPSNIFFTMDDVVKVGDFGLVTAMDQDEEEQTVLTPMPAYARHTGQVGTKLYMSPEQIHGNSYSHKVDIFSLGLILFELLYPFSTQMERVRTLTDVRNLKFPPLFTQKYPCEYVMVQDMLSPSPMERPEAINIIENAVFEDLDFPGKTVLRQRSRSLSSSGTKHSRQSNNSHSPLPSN
The experiment in a line: Biochemical assay for PERK (coupled pyruvate kinase/lactate dehydrogenase assay). The conditions noted are these: 10 nM PERK, 1 mM ATP, reaction rate 2-3 h time frame, 30° C. The protocol: Biochemical Assay for PERK
Activity of PERK kinase was determined spectroscopically using a coupled pyruvate kinase/lactate dehydrogenase assay that continuously monitors the ATP hydrolysis-dependent oxidation of NADH (Science, 2000, 289, 1938-1942). Assays were conducted in 384-well plates (100 μL final volume) using 10 nM PERK (from Beryllium), 0.25 mg/mL Myelin Basic Protein substrate, 1.5 units pyruvate kinase, 2.1 units lactate dehydrogenase, 1 mM phosphoenol pyruvate, 0.28 mM NADH and 1 mM ATP in assay buffer (100 mM Tris, pH 7.5, 15 mM MgCl2, 0.5 mM DTT, 0.004% (w/v) BSA, and 0.004% Triton X-100). Inhibition of PERK was measured by adding serial diluted test compound (final assay concentration of 1% DMSO). A decrease in absorption at 340 nm was monitored continuously for 6 hours at 30° C. on a multi-mode microplate reader (BioTek). The reaction rate was calculated using the 2-3 h time frame. The reaction rate at each concentration of compound was converted to percent inhibition using controls (i.e., reaction with no test compound and reaction with a known inhibitor) and IC50 values were calculated using software routines in Prism (GraphPad software).

Assay [3] relates to ASNase treated CCRF-CEM cells. Nature of the assay: CCRF-CEM ASNase cell proliferation assay, phenotypic assay for cellular inhibition of GCN2. The assay is classed as cell-based. The conditions noted are these: Homo sapiens, 1 mU/mL ASNase, 72 h, resazurin. The procedure:
CCRF-CEM ASNase Cell Proliferation Assay, a Phenotypic Assay for Cellular Inhibition of GCN2.
CCRF-CEM leukemia cells (catalog #CCL-116) were obtained from the American Type Culture Collect (ATTC, Manassas, VA). Cells were grown in RPMI-1640 medium supplemented with 10% heat-inactivated fetal bovine serum (Invitrogen, Carlsbad, CA) and 1% Penicillin/Streptomycin/L-Glutamine at 37° C., 5% CO2, and 95% humidity. Cells were expanded until reaching one million cells per mL at which time they are subcultured or harvested for assay use. Ten thousand cells per well in 200 μL RPMI-1640 supplemented with 10% heat-inactivated fetal bovine serum and 1% Penicillin/Streptomycin were dispensed into a 96-well black clear bottom plate. A serial dilution of test compound and 1 mU/mL ASNase was added in triplicate and plates were incubated for 72 h at 37° C., 5% CO2, and 95% humidity. At the end of the incubation, 40 μL of a […] solution of resazurin (Sigma, St. Louis, MO) in PBS was added to each well of the plate and plates were incubated for an additional 6 h at 37° C., 5% CO2, and 95% humidity. Plates were read on a Synergy2 or equivalent reader (Biotek, Winooski VT) using an excitation of 540 nm and an emission of 600 nm. Data was analyzed using GraphPad Prism software (GraphPad, San Diego, CA) to calculate IC50 values.

In assay [4] the test system is ATF4 in Thapsigargin stimulated CCRF-CEM cells. Nature of the assay: CCRF-CEM TG ATF4 ELISA, phenotypic assay for cellular inhibition of PERK preactivated by thapsigargin. The conditions noted are these: Homo sapiens, 3 h, compound three hours then 1 μM thapsigargin for an additional hour. The assay is classed as cell-based. The protocol:
CCRF-CEM TG ATF4 ELISA, a Phenotypic Assay for Cellular Inhibition of PERK Preactivated by Thapsigargin (TG)
CCRF-CEM leukemia cells (catalog #CCL-116) were obtained from the American Type Culture Collection (ATTC, Manassas, VA). Briefly, cells were grown in RPMI-1640 medium supplemented with 10% heat-inactivated fetal bovine serum (Invitrogen, Carlsbad, CA) and 1% Penicillin/Streptomycin/L-Glutamine at 37° C., 5% CO2, and 95% humidity. Cells were expanded until reaching one million cells per mL at which time they were subcultured or harvested for assay use. One million five hundred thousand cells per well in 1 mL complete growth medium were dispensed into 12-well plates and incubated overnight. A serial dilution of test compound was added and cells were incubated at 37° C., 5% CO2, and 95% for three hours, then 1 μM thapsigargin was added and cells were incubated for an additional hour at 37° C., 5% CO2, and 95%. Cells were lysed then ATF4 levels were measured using an ELISA assay (Proteintech, Rosemont, IL). Absorbance was measured at 450 nm and 544 nM using a Synergy2 or equivalent reader (Biotek, Winooski VT). Data was analyzed using PRISM software (Graphpad, San Diego, CA) to calculate IC50 values.

Assay [5] concerns ATF4 in H929 Multiple Myeloma cells. Nature of the assay: H929 ATF4 ELISA assay. The conditions noted are these: four hours, fold stimulation of cellular ATF4 relative to vehicle treated control. It is filed as cell-based. The procedure:
H929 multiple myeloma cells (catalog #CRL-9068) were obtained from the American Type Culture Collection (ATTC, Manassas, VA). Briefly, cells were grown in RPMI-1640 medium supplemented with 20% heat-inactivated fetal bovine serum (catalog #A3840002, ThermoFisher Scientific, Waltham, MA), 1% Penicillin/Streptomycin/L-Glutamine (catalog #10378016, ThermoFisher Scientific, Waltham, MA), and 0.05 mM 2-mercaptoethanol (catalog #21985-023, ThermoFisher Scientific, Waltham, MA) at 37° C., 5% CO2, and 95% humidity. Cells were expanded until reaching one million five hundred thousand cells per mL at which time they were sub-cultured or harvested for assay use. One million five hundred thousand cells per well in 1 mL complete growth medium were dispensed into 12-well plates and incubated overnight. A serial dilution of test compound was added, and cells were incubated at 37° C., 5% CO2, and 95% for four hours. Cells were lysed then ATF4 levels were measured using an ELISA assay (Proteintech, Rosemont, IL). Absorbance is measured at 450 nm and 544 nM using a Synergy2 or equivalent reader (Biotek, Winooski VT). Data were analyzed using PRISM software (Graphpad, San Diego, CA) to calculate fold stimulation of cellular ATF4 relative to vehicle treated control.

As to `CC(=O)OCc1cc(Cl)cc(S(=O)(=O)Nc2cccc(-c3nc(C)n4ccnc(N)c34)c2F)c1Cl` [Example 1, 3-(N-(3-(8-amino-3-methylimidazo[1,5-a]pyrazin-1-yl)-2-fluorophenyl)sulfamoyl)-2,5-dichlorobenzyl acetate], the IC50 in assay [1] lay in the range of 1000 to 10000 nM; in assay [2], 100 to 500 nM; in assay [3], 500 to 1000 nM; in assay [4], 500 to 1000 nM. The “H929 NS ATF4 ELISA” value in assay [5] is given as “++++ (an ATF4 stim greater than 20-fold)”.
Consider `Cc1nc(-c2cccc(NS(=O)(=O)c3cc(Cl)cc(CO)c3Cl)c2F)c2c(N)nccn12` [Example 2, N-(3-(8-amino-3-methylimidazo[1,5-a]pyrazin-1-yl)-2-fluorophenyl)-2,5-dichloro-3-(hydroxymethyl)benzenesulfonamide], for which the IC50 was 100 to 500 nM in assay [1], no more than 100 nM in assay [2], 100 to 500 nM in assay [3] and 100 to 500 nM in assay [4]. In addition, the “H929 NS ATF4 ELISA” value in assay [5] was “+++ (an ATF4 stim greater than 10-fold and less than or equal to 20-fold)”.
Regarding `Nc1ncnn2ccc(-c3cccc(NS(=O)(=O)c4cc(Cl)cc(CO)c4Cl)c3F)c12` [Example 3], the IC50 in assay [1] is 100 to 500 nM; in assay [2], no more than 100 nM; in assay [3] it was 100 to 500 nM; in assay [4], 100 to 500 nM. In addition, in assay [5], the “H929 NS ATF4 ELISA” value is “++ (an ATF4 stim greater than 5-fold and less than or equal to 10-fold)”.
As to `Cc1nc(-c2cc(NS(=O)(=O)c3cc(Cl)cc(CO)c3Cl)cc(F)c2F)c2c(N)nccn12` [Example 4], the IC50 in assay [1] was no more than 100 nM; in assay [2], no more than 100 nM; in assay [3], 1000 to 10000 nM; in assay [4], 1000 to 10000 nM. The “H929 NS ATF4 ELISA” value in assay [5] is “+ (an ATF4 stim less than or equal to 5-fold)”.
`CC(C)(C)c1nc(-c2cccc(NS(=O)(=O)c3cc(Cl)cc(CO)c3Cl)c2F)c2c(N)nccn12` [Example 9]: the IC50 in assay [1] was 100 to 500 nM; in assay [2] it was no more than 100 nM; in assay [3], 100 to 500 nM; in assay [4], 100 to 500 nM. In addition, in assay [5], the “H929 NS ATF4 ELISA” value was “+++ (an ATF4 stim greater than 10-fold and less than or equal to 20-fold)”.
As for `Nc1nccn2c(-c3ccccc3)nc(-c3cccc(NS(=O)(=O)c4cc(Cl)cc(CO)c4Cl)c3F)c12` [Example 12], the 50% inhibitory concentration (IC50) is no more than 100 nM in assay [1], no more than 100 nM in assay [2], 100 to 500 nM in assay [3] and 500 to 1000 nM in assay [4]. For the same compound, in assay [5], the “H929 NS ATF4 ELISA” value is “++++ (an ATF4 stim greater than 20-fold)”.
On to `Cc1cc(-c2cccc(NS(=O)(=O)c3cc(Cl)cc(CO)c3Cl)c2F)c2c(N)ncnn12` [Example 13], for which the IC50 was 100 to 500 nM in assay [1], no more than 100 nM in assay [2], 100 to 500 nM in assay [3] and 100 to 500 nM in assay [4]. Also, the “H929 NS ATF4 ELISA” value in assay [5] is “+++ (an ATF4 stim greater than 10-fold and less than or equal to 20-fold)”.
Regarding `Nc1nccn2c(C3CC3)nc(-c3cccc(NS(=O)(=O)c4cc(Cl)cc(CO)c4Cl)c3F)c12` [Example 14], the IC50 in assay [1] was no more than 100 nM; in assay [2], no more than 100 nM; in assay [3] it was no more than 100 nM; in assay [4] it was 100 to 500 nM. Further, in assay [5], the “H929 NS ATF4 ELISA” value is “++ (an ATF4 stim greater than 5-fold and less than or equal to 10-fold)”.
As for `CC(C)c1nc(-c2cccc(NS(=O)(=O)c3cc(Cl)cc(CO)c3Cl)c2F)c2c(N)nccn12` [Example 16], the half-maximal inhibitory concentration (IC50) in assay [1] is no more than 100 nM; in assay [2] it was no more than 100 nM; in assay [3], no more than 100 nM; in assay [4], 100 to 500 nM. Moreover, the “H929 NS ATF4 ELISA” value in assay [5] is “+++ (an ATF4 stim greater than 10-fold and less than or equal to 20-fold)”.
On to `COc1ncc(Cl)cc1S(=O)(=O)Nc1cccc(-c2cn(C)c3ncnc(N)c23)c1F` [Example 45, N-(3-(4-amino-7-methyl-7H-pyrrolo[2,3-d]pyrimidin-5-yl)-2-fluorophenyl)-5-chloro-2-methoxypyridine-3-sulfonamide], for which the IC50 is 1000 to 10000 nM in assay [1], no more than 100 nM in assay [2], 1000 to 10000 nM in assay [3] and 100 to 500 nM in assay [4].
As to `COCc1cc(Cl)cc(S(=O)(=O)Nc2cccc(-c3nc(C)n4ccnc(N)c34)c2F)c1Cl` [Example 48, N-(3-(8-amino-3-methylimidazo[1,5-a]pyrazin-1-yl)-2-fluorophenyl)-2,5-dichloro-3-(methoxymethyl)benzenesulfonamide], the IC50 was 500 to 1000 nM in assay [1], no more than 100 nM in assay [2], 1000 to 10000 nM in assay [3] and 1000 to 10000 nM in assay [4].
As for `Cn1cc(-c2cccc(NS(=O)(=O)c3cc(Cl)cc(CN)c3Cl)c2F)c2c(N)ncnc21` [Example 49], the IC50 lay in the range of 1000 to 10000 nM in assay [1], 100 to 500 nM in assay [2], 1000 to 10000 nM in assay [3] and 500 to 1000 nM in assay [4].
For `CNCc1cc(Cl)cc(S(=O)(=O)Nc2cccc(-c3cn(C)c4ncnc(N)c34)c2F)c1Cl` [Example 50], the IC50 lay within 1000 to 10000 nM in assay [1], 500 to 1000 nM in assay [2], 1000 to 10000 nM in assay [3] and 1000 to 10000 nM in assay [4].
In the case of `CO/N=C\c1cc(Cl)cc(S(=O)(=O)Nc2cccc(-c3cn(C)c4ncnc(N)c34)c2F)c1Cl` [Example 53], the IC50 in assay [1] is 1000 to 10000 nM; in assay [2], no more than 100 nM; in assay [3], 1000 to 10000 nM; in assay [4], 1000 to 10000 nM.

The values are drawn from patent publication US20260226069A1, “GCN2 AND PERK KINASE MODULATORS AND METHODS OF USE THEREOF” (Deciphera Pharmaceuticals, LLC, priority 2023, published 2026).
